Data reported in patent US10369131B2, “Ultrapure tetrahydrocannabinol-11-oic acids” (Corbus Pharmaceuticals, Inc., priority 2013, dated 2019).

How the values were obtained:
[1] = biological target: CB1 receptor (Homo sapiens, UniProt P21554); settings: earlier ajulemic acid synthesis products, literature; cited from earlier work
[2] = tested on: female CD-1 mice; settings: oral; AJA reported in U.S. Pat. No. 5,338,753; cited from earlier work
[3] = tested on: female CD-1 mice; assay: Rectal temperature (mouse hypothermia assay)
Procedure: (§1) Compounds were administered at a volume of […] via oral gavage.
(§2) Female CD-1 mice (20-25 g), obtained from Charles River (Raleigh, N.C.), were used for assessment in hot plate nociception, rectal temperature, and ring immobility assays. Separate mice were used for testing each dose of each compound in this battery of procedures. The mice had free access to food and water when in their home cages. All animals were kept in a temperature-controlled (20-22° C.) environment with a 12-hour light-dark cycle (lights on at 7 a.m.).
Each mouse was tested in a battery of three tests, in which cannabinoid CB1 agonists produce in vivo effects in mice (Martin et al., 1991): antinociception (hot plate assay), decreased rectal temperature and ring immobility. Prior to administration of the test compound, rectal temperature and baseline latency in the hot plate test were measured in the mice. The latter procedure involved placing the mouse on a heated surface (mouse cold/hot plate analgesia apparatus; Stoelting, Wood Dale, Ill.) at a setting of 55° C. Time until the mouse lifts or licks a paw was measured, whereupon the mouse was removed from the apparatus. […] Subsequently, the mice were placed on a 5.5 cm ring attached at a height of 16 cm to a ring stand, and the amount of time the animals remained motionless during a 5 min period was recorded. In addition, the number of times the mouse fell or jumped off the ring was recorded. […]
Rectal temperature values were expressed as the difference between control temperature (before injection) and temperature following drug administration (Δ° C.). Antinociception was expressed as the percent maximum possible effect (MPE) using a 30-s maximum test latency as follows: [(test−control)/(30−control)]×100. During assessment for catalepsy, the total amount of time (in seconds) that the mouse remained motionless on the ring apparatus (except for breathing and whisker movement) was measured and was used as an indication of catalepsy-like behavior. […]

[4] = tested on: female CD-1 mice; assay: Ring immobility (catalepsy) test
Procedure: The cataleptic response was measured using the ring test described by Pertwee (Pertwee R G, The Ring Test. A Quantitative Method of Assessing the Cataleptic Effect of Cannabis in Mice, Br. J. Pharmacol. 46:753-763 (1972)). Mice were placed on a horizontal wire ring 5.5 cm in diameter attached to a 16 cm vertical rod. The hind paws and fore paws were placed at opposite sides of the ring. The ambient temperature was maintained at 30° C. and the environment was free of auditory stimuli and bright lights. The response was calculated as the fraction of time the mouse was immobile over a five (5) minute test period.
A dose response was conducted for ultrapure AJA to oral doses of 0.05 to 56 mg/kg.
as §1, §2
Each mouse was tested in a battery of three tests, in which cannabinoid CB1 agonists produce in vivo effects in mice (Martin et al., 1991): antinociception (hot plate assay), decreased rectal temperature and ring immobility. Prior to administration of the test compound, rectal temperature and baseline latency in the hot plate test were measured in the mice. The latter procedure involved placing the mouse on a heated surface (mouse cold/hot plate analgesia apparatus; Stoelting, Wood Dale, Ill.) at a setting of 55° C. Time until the mouse lifts or licks a paw was measured, whereupon the mouse was removed from the apparatus. […] After measurement of baseline temperature and hot plate latency, mice were administered vehicle or drug via oral gavage. […] Subsequently, the mice were placed on a 5.5 cm ring attached at a height of 16 cm to a ring stand, and the amount of time the animals remained motionless during a 5 min period was recorded. In addition, the number of times the mouse fell or jumped off the ring was recorded. If the mouse fell off the ring more than 5 times, the test was terminated.
Rectal temperature values were expressed as the difference between control temperature (before injection) and temperature following drug administration (Δ° C.). Antinociception was expressed as the percent maximum possible effect (MPE) using a 30-s maximum test latency as follows: [(test−control)/(30−control)]×100. During assessment for catalepsy, the total amount of time (in seconds) that the mouse remained motionless on the ring apparatus (except for breathing and whisker movement) was measured and was used as an indication of catalepsy-like behavior. This value was divided by 300 s and multiplied by 100 to obtain a percent immobility. If the mouse fell off the ring more than 5 times, the test was terminated and ring immobility data for the mouse were not included in analysis. Separate between-subjects ANOVAs were used to analyze each measure. Significant differences from control (vehicle) were further analyzed with Tukey post hoc tests (α=0.05) as necessary.

[5] = tested on: female CD-1 mice; assay: Mouse hot plate test for antinociception; assay type: in vivo; settings: 60 min after administration
[6] = tested on: HL-60 cells; assay: PGJ synthesis in HL-60 cells (ELISA); assay type: cell-based
Procedure: The CB2 antagonist SR144528 reduced ultrapure AJA-induced PGJ synthesis in HL60 immune system cells at low concentrations (squares). […] DMSO control (open circles). Treatments of cells was carried out in 48 well plates with 20,000 cells/500 μl RPMI/FCS media/well. Cells were incubated for 20 hrs at 37° C. and 5% CO2. Media was changed to 500 μl of serum free RPMI and TNFα (10 nM) added. […] N=4.

[7] = rat, at peak pharmacodynamic time points; cited from earlier work
[8] = tested on: neuropathic pain patients; settings: man, cited from earlier work
[9] = tested on: tumor growth; settings: doses in the anti-inflammatory range, compared with THC; cited from earlier work
[10] = oral 30 and 100 mg/kg (both doses), vs vehicle, p<0.05

CB1 receptor, sequence (P21554 whole entry): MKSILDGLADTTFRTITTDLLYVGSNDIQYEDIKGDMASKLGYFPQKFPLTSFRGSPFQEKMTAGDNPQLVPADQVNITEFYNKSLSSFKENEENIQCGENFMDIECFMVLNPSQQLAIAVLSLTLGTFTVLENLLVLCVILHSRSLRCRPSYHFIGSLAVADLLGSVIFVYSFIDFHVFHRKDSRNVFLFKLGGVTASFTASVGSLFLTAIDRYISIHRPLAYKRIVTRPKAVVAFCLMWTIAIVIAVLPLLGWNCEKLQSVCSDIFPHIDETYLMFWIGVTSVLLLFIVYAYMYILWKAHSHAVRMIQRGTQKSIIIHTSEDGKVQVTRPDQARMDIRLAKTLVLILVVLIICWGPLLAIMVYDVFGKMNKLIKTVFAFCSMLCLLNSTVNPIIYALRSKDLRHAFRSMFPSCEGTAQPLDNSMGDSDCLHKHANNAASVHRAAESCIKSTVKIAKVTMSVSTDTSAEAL

## CCCCCCC(C)(C)c1cc(O)c2c(c1)OC(C)(C)[C@@H]1CC=C(C(=O)O)C[C@@H]21 [HU-239]
[1]
  ratio of CB1/CB2 binding: 0.19
[2]
  doses at which active in the mouse hot plate assay: < 0.5 mg/kg

## CCCCCc1cc(O)c2c(c1)OC(C)(C)[C@@H]1CCC(C)=C[C@@H]21 [Δ9-THC, reference compound]
[3]; [10]
  hypothermia (rectal temperature): produced significant
[4]; [10]
  ring immobility: produced significant
[5]; oral 100 mg/kg only, vs vehicle, p<0.05
  antinociception in the hot plate test (% MPE): produced significant antinociception

## SR144528
[6]
  effect of CB2 antagonist on ultrapure AJA-induced PGJ synthesis: reduced

## CCCCCCC(C)(C)c1cc(O)c2c(c1)OC(C)(C)[C@@H]1CC=C(C(=O)O)C[C@@H]21 [AJA, (6aR,10aR)-3-(1′,1′-dimethylheptyl)-Δ8-tetrahydro-cannabinol-9-carboxylic acid]
[7]
  brain levels relative to those seen in the plasma: 25-30%
[8]; neuropathic pain patients
  cannabis-like psychotropic adverse events: absence
[8]
  pain scores in neuropathic pain patients: reduce pain scores
[9]
  inhibition of tumor growth: small but significant inhibition of tumor growth greater than that produced by THC

## Cc1c(C(=O)NN2CCCCC2)nn(-c2ccc(Cl)cc2Cl)c1-c1ccc(Cl)cc1 [SR141716]
[6]; antagonist 10 μM, 2 hrs
  effect of CB1 antagonist on ultrapure AJA-induced PGJ synthesis: much smaller effect

## COc1ccc2c(c1)c(CC(=O)O)c(C)n2C(=O)c1ccc(Cl)cc1 [indomethacin, reference compound]
[3]; 30 mg/kg oral
  rectal temperature: did not significantly affect
[4]; 30 mg/kg oral
  ring immobility: did not significantly affect
[5]; 30 mg/kg oral
  antinociception in the hot plate test (% MPE): did not significantly affect
